Measurements from patent US20250145624A1, “MEMBRANE-ASSOCIATED TYROSINE- AND THREONINE-SPECIFIC CDC2-INHIBITORY KINASE (PKMYT1) INHIBITORS AND USES THEREOF” (Insilico Medicine IP Limited, priority 2022, published 2025).

Experiments:
[1] = biological target: PKMYT1 (MYT1) (Homo sapiens (Human), UniProt Q99640); test: PKMYT1 HTRF Assay; type: binding; conditions: Tracer 178, GST-Tb; compound 10 μM to 0.5 nM
Method: Example A: PKMYT1 HTRF Assay
(§1) Compound serial dilution is performed by Echo, and the final concentrations vary from 10 μM to 0.5 nM. This was filled by the addition of 5 μL/well of Enzyme solution to the assay plate containing the compound. The plate was centrifuged at 1000 rpm for 1 minute, and incubate 15 minutes at 25° C. Then 5 μL/well of tracer solution (Tracer 178) was added to initiate the reaction, and incubate for 60 minutes at 25° C. Next 5 μL GST-Tb was added into the assay plate, the plate was centrifuged at 1000 rpm for 1 minute, and incubate for 15 minutes at 25° C. The assay plate was read on Envision.

[2] = biological target: WEE1 (Homo sapiens (Human), UniProt P30291); test: WEE1 ADP-Glo Assay; type: biochemical; conditions: compound 10 μM to 0.5 nM
Method: Example B: WEE1 ADP-Glo Assay
as §1, with “of substrate” for “of tracer”, “solution” for “solution (Tracer 178)”, “Next 10” for “Next 5”, “μL kinase detection reagent” for “μL GST-Tb”, “for 60” for “for 15”, “on Envision for US LUM as RLU.” for “on Envision.”

PKMYT1 (MYT1), sequence (Q99640 whole entry): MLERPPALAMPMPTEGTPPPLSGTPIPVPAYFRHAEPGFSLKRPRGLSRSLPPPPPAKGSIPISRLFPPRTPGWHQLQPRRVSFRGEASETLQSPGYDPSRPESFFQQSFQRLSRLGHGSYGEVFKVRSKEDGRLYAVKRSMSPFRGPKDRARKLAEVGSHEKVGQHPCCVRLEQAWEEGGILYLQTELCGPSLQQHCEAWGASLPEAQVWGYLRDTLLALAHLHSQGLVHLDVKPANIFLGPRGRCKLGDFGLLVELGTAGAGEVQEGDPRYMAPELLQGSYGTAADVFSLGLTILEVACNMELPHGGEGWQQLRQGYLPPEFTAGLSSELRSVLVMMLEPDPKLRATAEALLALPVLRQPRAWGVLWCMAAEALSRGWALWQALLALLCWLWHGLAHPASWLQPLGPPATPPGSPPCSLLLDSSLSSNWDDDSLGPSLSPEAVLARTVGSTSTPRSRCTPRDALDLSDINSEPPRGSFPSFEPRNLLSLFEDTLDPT
WEE1, sequence (P30291 whole entry): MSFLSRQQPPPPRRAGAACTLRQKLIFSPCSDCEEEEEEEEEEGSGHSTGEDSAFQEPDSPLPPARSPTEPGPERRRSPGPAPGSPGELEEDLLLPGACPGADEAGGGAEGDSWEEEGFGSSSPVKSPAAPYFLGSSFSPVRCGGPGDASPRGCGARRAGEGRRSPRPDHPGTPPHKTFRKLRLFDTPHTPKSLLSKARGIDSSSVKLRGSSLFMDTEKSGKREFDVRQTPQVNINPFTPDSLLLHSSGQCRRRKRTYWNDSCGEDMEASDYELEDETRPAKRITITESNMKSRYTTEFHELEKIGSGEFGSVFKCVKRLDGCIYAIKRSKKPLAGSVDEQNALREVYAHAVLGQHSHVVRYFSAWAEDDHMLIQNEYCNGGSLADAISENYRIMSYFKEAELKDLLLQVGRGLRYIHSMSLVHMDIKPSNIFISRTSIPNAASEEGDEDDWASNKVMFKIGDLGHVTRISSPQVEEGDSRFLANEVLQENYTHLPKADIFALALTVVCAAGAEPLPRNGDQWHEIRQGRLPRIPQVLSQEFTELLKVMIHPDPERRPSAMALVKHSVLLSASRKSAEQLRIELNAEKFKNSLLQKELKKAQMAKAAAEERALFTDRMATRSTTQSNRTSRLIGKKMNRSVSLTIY

For `Cc1ccc(O)c(C)c1-n1c(N)c2c3c(c(C)cnc31)CCNC2=O` [Example 1, 1-amino-2-(3-hydroxy-2,6-dimethylphenyl)-5-methyl-2,6,7,8-tetrahydro-9H-2,3,8-triazabenzo[cd]azulen-9-one], the IC50 [1] was < 10 nM and the IC50 [2] was 1210 nM.
In the case of `Cc1ccc(O)c(C)c1-n1c(N)c2c3c(c(C)ncc31)CCNC2=O` [Example 2, 1-amino-2-(3-hydroxy-2,6-dimethylphenyl)-5-methyl-2,6,7,8-tetrahydro-9H-2,4,8-triazabenzo[cd]azulen-9-one], the IC50 [1] is reported as 10 to 50 nM and the IC50 [2] is reported as > 10000 nM.
In the case of `Cc1nc2c3c(c(N)n(-c4c(C)ccc(O)c4C)c3n1)C(=O)NCC2` [Example 3, 1-amino-2-(3-hydroxy-2,6-dimethylphenyl)-4-methyl-2,6,7,8-tetrahydro-9H-2,3,5,8-tetraazabenzo[cd]azulen-9-one], the IC50 [1] is reported as < 10 nM.
